# In patent publication EP4257133A1, “OXO-AZAHETEROCYCLIC DERIVATIVES FOR USE IN THE TREATMENT OF MALARIA” (Institut Pasteur, priority 2022, dated 2023):
# Read-outs that look alike come from different tables or passages of the source.
# What was measured:
# [1] = system: 3815 strain; assay: Ring stage survival assay (RSA); type: cell-based, P. falciparum; settings: mean ± SD of three experiments
# Description: (§1) In early and late trophozoites, multiple PRDX6 foci (white arrow heads) were observed adjacent to the parasite FV. DNA, Hoechst 33342 (nuclei). Scale bars: 5 µm. (B-F) Immuno-transmission electron microscopy (TEM) using monoclonal mouse anti-PRDX6 antibody. (B) Uninfected RBC showing even cytosolic staining for PRDX6. (C-F) P. falciparum-infected RBCs show co-localization of PRDX6 and hemoglobin in vesicles at the inner surface of the parasite plasma membrane in structures that resemble cytostomes (black arrows), at the FV (white arrows), or within the parasite cytosol (striped grey arrow). Scale bars: 500 nm. […] Parasites were treated at ring stage and growth to schizont stage in the same cycle ("progression") or to next generation rings ("growth") was scored by flow cytometry using DNA intercalating fluorescent dye SYBR Green I. • Figure 3 concerns the radioactive PLA2 activity assay using phosphorylated recombinant human PRDX6 in presence or absence of Darapladib. Darapladib inhibits PLA2 activity of PRDX6 with IC50 of ≈0.5µM. • Figure 4 is related to the co-treatment of ART-resistant parasites with artemisinin and Darapladib synergistically reduces parasite survival. (A) Ring stage survival assays (RSA) (Witkowski et al., Lancet Infect. Dis. 13, 1043-1049 (2013)) with Darapladib (Dar) and Dihydroartemisinin (DHA) against ART-resistant P. falciparum strains. For detailed data regarding synergism, cf. Table 1. (B) Growth/Progression assay with continuous Darapladib treatment against ART-resistant P. falciparum strains. Data are means ± SD of three independent experiments, unpaired t-tests. […] The thermal shift of the melting temperature of PRDX6 in presence of Darapladib was determined using a SYPRO orange-based differential scanning fluorimetry (DSF) assay. ΔTm > 0.5°C was considered significant. Incubation with 25µM Darapladib decreased the Tm of PRDX6 by 1.1 ± 0.2 °C.
# (§2) It has been investigated whether co-treatment with Darapladib and ART could restore ART-susceptibility in the ring stage survival assay (RSA).
# (§3) The survival rate for treatment with 1 µM Darapladib alone and 700 nM DHA alone was multiplied to calculate a theoretical survival rate if the effect of the combination was additive ("Calc. Additive"). The experimentally measured survival rate ("Measured") was divided by the calculated theoretical additive survival rate for the co-treatment. A ratio < 1 for Measured/Calc. indicates synergism, a ratio = 1 indicates an additive effect and a ratio > 1 indicates an antagonistic effect. Data are means ± SD of six independent experiments for NF54 C580Y and three independent experiments for 3815, unpaired t-test.
# [2] = system: NF54 Kelch13^C580Y; assay: Ring stage survival assay (RSA); type: cell-based, P. falciparum; settings: mean ± SD of six experiments
# Description: as §1, §2, §3
# [3] = target: T1, PRDX6 (Homo sapiens, UniProt P30041); assay: Activity-based protein profiling (ABPP), competition with the probe TAMRA-FP; type: binding; settings: fluorescent labelling of PRDX6
# T1 sequence (P30041 1-224): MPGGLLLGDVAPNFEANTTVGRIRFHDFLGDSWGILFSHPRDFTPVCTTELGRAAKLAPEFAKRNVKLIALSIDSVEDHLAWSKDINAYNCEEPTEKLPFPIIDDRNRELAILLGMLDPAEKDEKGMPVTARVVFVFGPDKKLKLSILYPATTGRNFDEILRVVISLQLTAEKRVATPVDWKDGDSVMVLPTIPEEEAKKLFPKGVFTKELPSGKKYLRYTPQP
# Description: Darapladib has been assessed for the binding to the PLA2 active site of PRDX6 by activity-based protein profiling (ABPP) using recombinant human PRDX6 and the fluorescently tagged probe TAMRA-FP that covalently labels the serine in the PLA2 active site of PRDX6.
# [4] = system: 3815 strain; assay: Growth/Progression assay with continuous treatment; type: cell-based, P. falciparum; settings: continuous treatment during the complete blood stage cycle
# Description: as §1, with “survival.” for “survival. (A) Ring stage survival assays (RSA) (Witkowski et al., Lancet Infect. Dis. 13, 1043-1049 (2013)) with Darapladib (Dar) and Dihydroartemisinin (DHA) against ART-resistant P. falciparum strains. For detailed data regarding synergism, cf. Table 1. (B) Growth/Progression assay with continuous Darapladib treatment against ART-resistant P. falciparum strains. Data are means ± SD of three independent experiments, unpaired t-tests.”, “Incubation with 25µM Darapladib decreased the Tm of PRDX6 by 1.1 ± 0.2 °C.” left out
# [5] = system: NF54 Kelch13^C580Y; assay: Growth/Progression assay with continuous treatment; type: cell-based, P. falciparum; settings: continuous treatment during the complete blood stage cycle
# Description: as §1, with “survival.” for “survival. (A) Ring stage survival assays (RSA) (Witkowski et al., Lancet Infect. Dis. 13, 1043-1049 (2013)) with Darapladib (Dar) and Dihydroartemisinin (DHA) against ART-resistant P. falciparum strains. For detailed data regarding synergism, cf. Table 1. (B) Growth/Progression assay with continuous Darapladib treatment against ART-resistant P. falciparum strains. Data are means ± SD of three independent experiments, unpaired t-tests.”, “Incubation with 25µM Darapladib decreased the Tm of PRDX6 by 1.1 ± 0.2 °C.” left out
# [6] = system: P. falciparum 3D7; assay: Blood stage progression and growth assay, flow cytometry with SYBR Green I; type: cell-based; settings: for IC50: Plasmodium falciparum, 3D7, n = 3 in triplicates
# Description: as §1, with “1.” for “1. (B) Growth/Progression assay with continuous Darapladib treatment against ART-resistant P. falciparum strains. Data are means ± SD of three independent experiments, unpaired t-tests.”, “Incubation with 25µM Darapladib decreased the Tm of PRDX6 by 1.1 ± 0.2 °C.” left out
# Darapladib was also tested in vitro for its ability to block P. falciparum blood stage growth and progression from rings to schizonts. Synchronous P. falciparum 3D7 cultures were treated at the ring stage and effects on ring to schizont development ("progression") and multiplication following completion of a full blood stage cycle ("growth") were assessed by flow cytometry using the DNA intercalating fluorescent dye SYBR Green I. […]
# [7] = target: T2, phosphorylated recombinant human PRDX6 (Homo sapiens, UniProt P30041); assay: Radioactive PLA2 activity assay; type: biochemical; settings: read-out: IC50 of inhibition of PLA2 activity of PRDX6
# T2 sequence (P30041 1-224): T1 sequence (P30041 1-224)
# Description: as §1, with “survival.” for “survival. (A) Ring stage survival assays (RSA) (Witkowski et al., Lancet Infect. Dis. 13, 1043-1049 (2013)) with Darapladib (Dar) and Dihydroartemisinin (DHA) against ART-resistant P. falciparum strains. For detailed data regarding synergism, cf. Table 1. (B) Growth/Progression assay with continuous Darapladib treatment against ART-resistant P. falciparum strains. Data are means ± SD of three independent experiments, unpaired t-tests.”, “Incubation with 25µM Darapladib decreased the Tm of PRDX6 by 1.1 ± 0.2 °C.” left out
# [8] = target: T1, PRDX6; assay: ITDR-CETSA (IsoThermal Dose Response-Cellular Thermal Shift Assay); type: cell-based; design: endogenous in cells; inferred to be P. falciparum-infected human red blood cells, because host and parasite proteins were profiled together; settings: host and parasite proteins
# [9] = target: T1, PRDX6; assay: SYPRO orange-based differential scanning fluorimetry (DSF) assay; type: binding; design: endogenous in cells; inferred to be P. falciparum-infected human red blood cells, because host and parasite proteins were profiled together; settings: incubation with 25µM; ΔTm > 0.5°C considered significant
# Description: In early and late trophozoites, multiple PRDX6 foci (white arrow heads) were observed adjacent to the parasite FV. DNA, Hoechst 33342 (nuclei). Scale bars: 5 µm. (B-F) Immuno-transmission electron microscopy (TEM) using monoclonal mouse anti-PRDX6 antibody. (B) Uninfected RBC showing even cytosolic staining for PRDX6. (C-F) P. falciparum-infected RBCs show co-localization of PRDX6 and hemoglobin in vesicles at the inner surface of the parasite plasma membrane in structures that resemble cytostomes (black arrows), at the FV (white arrows), or within the parasite cytosol (striped grey arrow). Scale bars: 500 nm. […] Parasites were treated at ring stage and growth to schizont stage in the same cycle ("progression") or to next generation rings ("growth") was scored by flow cytometry using DNA intercalating fluorescent dye SYBR Green I. • Figure 3 concerns the radioactive PLA2 activity assay using phosphorylated recombinant human PRDX6 in presence or absence of Darapladib. […] The thermal shift of the melting temperature of PRDX6 in presence of Darapladib was determined using a SYPRO orange-based differential scanning fluorimetry (DSF) assay. ΔTm > 0.5°C was considered significant. […]
# Binding of the compounds of the invention to PRDX6 induces a significant shift in the melting temperature of PRDX6 which can be detected using the hydrophobic fluorescent dye SYPRO orange (Figure 5). […]
Compound,"Parasite survival, Drugs Alone, DHA ([1]; 3815, 700 nM DHA alone)","Parasite survival, Drugs Alone, DHA ([2]; 700 nM DHA alone)",binding to the PLA2 active site of PRDX6 [3],"Parasite survival, Drugs Alone, Dar 1µM ([1]; 3815, 1 µM Darapladib alone)","Parasite survival, Drugs Alone, Dar 1µM ([2]; 1 µM Darapladib alone)",blood stage growth [4],blood stage growth [5],parasite development ([6]; 3D7 cultures treated at the ring stage),"IC50 ([6]; ring stage to schizont, read-out: IC50 for parasite progression)","IC50 ([6]; whole cycle, ring to ring, read-out: IC50 for parasite growth)",IC50 [7],specificity for PRDX6 [8],decrease of the Tm of PRDX6 [9]
"C[C@H]1[C@@H](O)O[C@@H]2O[C@@]3(C)CC[C@H]4[C@H](C)CC[C@@H]1[C@@]24OO3 [DHA, Dihydroartemisinin]",7.1 ± 0.9%,7.9 ± 1.7%,,,,,,,,,,,
CCN(CC)CCN(Cc1ccc(-c2ccc(C(F)(F)F)cc2)cc1)C(=O)Cn1c(SCc2ccc(F)cc2)nc(=O)c2c1CCC2 [Darapladib],,,"bound the PLA2 active site of PRDX6, competed with TAMRA-FP and reduced the fluorescent labelling of PRDX6",94.7 ± 3.2%,89.0 ± 8.1%,effectively blocked blood stage growth,effectively blocked blood stage growth,arrested parasite development at the trophozoite stage,560 nM,760 nM,~500 nM,no other essential host or parasite protein is targeted,1.1 ± 0.2 °C
